Laboratory results taken from article PMC10518255, “A first-in-class pan-lysyl oxidase inhibitor impairs stromal remodeling and enhances gemcitabine response and survival in pancreatic cancer” (Nature Cancer, 2023).
Where “and” joins values, the source holds several entries; their conditions need not be identical. Equal values may be shown once.

Test system: α-SMA
Experiment: Immunohistochemistry of end-point KPC tumors: myCAF marker
Assay type: in vivo, mouse
Details: for Percent coverage of aSMA positive staining: Extended Data 6B, KPC tumours at endpoint, individual FOV
Description: All tissues or matrices, including patient TMAs, were fixed in 10% buffered formalin and embedded in paraffin. The 4-μm sections of samples were deparaffinized with xylene and rehydrated in graded ethanol washes. For immunohistochemistry, Bond Dewax Solution (AR9222) was used. Antigen retrieval was performed using Bond RX H2(30) protocol: HIER 30 min ER1 (citrate pH 6) OR ER2 (EDTA pH 9) at 100 °C. Slides were quenched in BOND Polymer Refine Detection (Leica Biosystems DS9800). […] Slides were digitized on an Aperio slide scanner and representative areas per tumor acquired and analyzed by researchers blinded to the conditions of the experiment.
Extended Data Fig. 6 PXS-5505 in combination with gemcitabine in a KPC model. a. Quantification of proliferating cells (Ki67 positive nuclear staining) in KPC tumors at end point, treated as indicated. 5 fields of view (500 μm × 500 μm) per mouse and 10 mice per cohort were scored. […] Quantification of percent coverage of αSMA positive staining in KPC tumors at end point, treated as indicated. 3 fields of view (1000 μm × 1000 μm) per mouse and 10 mice per cohort were scored. […] Quantification of percent coverage of PDGFR-ß positive staining in KPC tumors at end point, treated as indicated. 3 fields of view (1000 μm × 1000 μm) per mouse and 10 mice per cohort were scored. […] Quantification of pMLC2 positive staining in stromal regions of KPC tumors at end point, treated as indicated. 3 fields of view (500 μm × 500 μm) per mouse and 10 mice per cohort were scored. […] Quantification of tumor vasculature (CD31 positive staining) in KPC tumors at end point, treated as indicated. 3 fields of view (1000 μm × 1000 μm) per mouse and 10 mice per cohort were scored. […] Quantification of STAT3 activation (pSTAT3 positive nuclear staining) in KPC tumors at end point, treated as indicated. 3 fields of view (1000 μm × 1000 μm) per mouse and 5 mice per cohort were scored. […] Scale bars = 100 μm. g Quantification of macrophage infiltration (F4/80 positive staining) in KPC tumors at end point, treated as indicated. […]

SMILES	Percent coverage of aSMA positive staining	α-SMA positivity (KPC tumors at end point)
Cl.Cl.NC/C=C(\F)CS(=O)(=O)c1cccc2cccnc12.O [PXS-5505, (Z)-3-fluoro-4-(quinolin-8-ylsulfonyl)but-2-en-1-amine dihydrochloride monohydrate]	3.0735% and 6.2874% and 6.4326% and 3.0495% and 2.5796% and 2.9175% and 6.2269% and 8.7759% and 5.9209% and 8.6578% and 7.7662% and 8.3469% and 5.6452% and 6.7775% and 4.6186% and 7.36% and 5.232% and 2.4577% and 4.7266% and 9.579% and 5.032% and 5.1635% and 4.6717% and 8.3034% and 3.41% and 6.5089% and 4.6457% and 1.885% and 5.2516% and 5.0893%	
Nc1ccn([C@@H]2O[C@H](CO)[C@@H](O)C2(F)F)c(=O)n1 [Gem, gemcitabine]	4.1422% and 8.8428% and 3.9128% and 4.9851% and 3.7908% and 3.4102% and 13.5235% and 10.8353% and 9.6686% and 1.9907% and 2.1823% and 5.2926% and 3.0437% and 5.4036% and 4.2058% and 8.1217% and 4.3012% and 3.1567% and 3.0046% and 1.1246% and 5.0654% and 7.8034% and 8.097% and 1.0094% and 7.1387% and 7.3633% and 7.7939% and 1.1199% and 2.3003% and 3.6904%	small decreases in positivity
